The source of these data is US7902181B2, “Compounds 010” (AstraZeneca AB, priority 2007, dated 2011).

Structures can show the parent of a compound that is named as a salt.

Recombinant Human (rh) DPP1, sequence (P53634 25-463): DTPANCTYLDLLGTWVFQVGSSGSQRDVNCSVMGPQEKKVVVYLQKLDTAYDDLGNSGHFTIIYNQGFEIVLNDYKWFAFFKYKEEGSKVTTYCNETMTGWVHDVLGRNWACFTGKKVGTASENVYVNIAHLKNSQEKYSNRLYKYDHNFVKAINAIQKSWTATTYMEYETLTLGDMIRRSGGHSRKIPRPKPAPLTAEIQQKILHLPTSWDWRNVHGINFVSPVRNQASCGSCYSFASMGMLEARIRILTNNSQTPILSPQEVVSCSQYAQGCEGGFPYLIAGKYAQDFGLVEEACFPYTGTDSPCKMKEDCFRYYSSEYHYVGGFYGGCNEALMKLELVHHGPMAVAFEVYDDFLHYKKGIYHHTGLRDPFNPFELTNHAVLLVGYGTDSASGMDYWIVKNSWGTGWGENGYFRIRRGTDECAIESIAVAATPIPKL

This test has as its target Recombinant Human (rh) DPP1 (Homo sapiens, UniProt P53634). The test is described as follows: Fluorescence Assay for Recombinant Human (rh) DPP1. Type of test: biochemical. Conditions: rhDPP1; substrate H-Gly-Arg-AMC; pH5.0; 30 min pre-incubation, 60 min reaction at 22° C.; highest concentration 10 μM; read-out: DPP1 activity, pIC50 (converted). Here is the method:
Fluorescence Assay for Recombinant Human (rh) DPP1
The activity of DPP1 was determined by measuring the enzymatic release of aminomethyl coumarin (AMC) from the peptide substrate (H-Gly-Arg-AMC), which leads to an increase in fluorescence intensity at λex=350 nm and λem=450 nm. The assay was carried out in black 384 well plates in a final volume of 50 μl at 22° C. The assay conditions contained the following: 25 mM piperazine buffer pH5.0; 50 mM NaCl, 5 mM DTT; 0.01% (v/v) Triton X-100; 100 μM H-Gly-Arg-AMC and rhDPP1 ([…]). Potential inhibitors were made up in DMSO and then diluted in the assay to give a final concentration of 1% (v/v) DMSO. A 12-point half-log dilution of the inhibitors (highest concentration 10 μM) was tested and the pIC50 determined using a 4-parameter logistic equation in a non-linear curve fitting routine. A standard DPP1 inhibitor (vinyl sulfone, see below) was used as a positive control in the assay. Routinely, inhibitors were pre-incubated with rhDPP1 for 30 min prior to the addition of the peptide substrate to start the reaction for a further 60 min at 22° C. After that the plates were immediately read in a fluorescence plate reader using the above emission and excitation wavelengths [modified from Kam, C M, Gotz, M G, Koot, G, McGuire, M J, Thiele, D L, Hudig, D & Powers, J C (2004). Arch Biochem Biophys, 427, 123-134 & McGuire, M J, Lipsky, P E & Thiele, D L (1992). Arch Biochem Biophys, 295, 280-288].
Take `COCCn1c(=O)sc2ccc(-c3ccc(C[C@@H](C#N)NC(=O)[C@@H]4CCCCN4)cc3)cc21` [Example 55, (S)-N-((S)-1-cyano-2-(4-(3-(2-methoxyethyl)-2-oxo-2,3-dihydrobenzo[d]thiazol-5-yl)phenyl)ethyl)piperidine-2-carboxamide]: the IC50 is 5.01 nM.

For the molecule `CCCS(=O)(=O)c1cc(-c2ccc(C[C@@H](C#N)NC(=O)[C@@H]3CCCCN3)cc2)ccc1C#N` [Example 60, (S)-N-((S)-1-Cyano-2-(4′-cyano-3′-(propylsulfonyl)biphenyl-4-yl)ethyl)piperidine-2-carboxamide], the IC50 was 20 nM.

In the case of `N#C[C@H](Cc1ccc(-c2ccccc2)cc1)NC(=O)[C@@H]1CCCCN1` [Example 16, Piperidine-2-carboxylic acid (2-biphenyl-4-yl-1-cyano-ethyl)-amide], the IC50 was 126 nM.

In the case of `Cc1cc(O)ccc1-c1ccc(C[C@@H](C#N)NC(=O)[C@@H]2CCCCN2)cc1` [Example 11, (S)-N-((S)-1-Cyano-2-(4′-hydroxy-2′-methylbiphenyl-4-yl)ethyl)piperidine-2-carboxamide Trifluoroacetate], the IC50 was 316 nM.

Turning to `N#C[C@H](Cc1ccc(-c2cccc(C(=O)O)c2)cc1)NC(=O)[C@@H]1CCCCN1` [Example 12, 4′-((S)-2-Cyano-2-((S)-piperidine-2-carboxamido)ethyl)biphenyl-3-carboxylic Acid Trifluoroacetate], the IC50 is 398 nM.

On to `N#C[C@H](Cc1ccc(-c2cccc(C(N)=O)c2)cc1)NC(=O)[C@@H]1CCCCN1` [Example 34, (2S)-N-[(1S)-2-[4-(3-Carbamoylphenyl)phenyl]-1-cyano-ethyl]piperidine-2-carboxamide trifluoroacetate], for which the IC50 is 200 nM.

As for `CCS(=O)(=O)c1ccc(-c2ccc(C[C@@H](C#N)NC(=O)[C@@H]3CCCCN3)cc2)c(C)c1` [Example 43, (2S)-N-[(1S)-1-Cyano-2-[4-(4-ethylsulfonyl-2-methyl-phenyl)phenyl]ethyl]pipe-ridine-2-carboxamide trifluoroacetate], the IC50 was 631 nM.

For the molecule `N#Cc1cccc(-c2ccc(C[C@@H](C#N)NC(=O)[C@@H]3CCCCN3)cc2)c1` [Example 6, (S)-N-((S)-1-Cyano-2-(3′-cyanobiphenyl-4-yl)ethyl)piperidine-2-carboxamide Trifluoroacetate], the IC50 was 63.1 nM.

Consider `N#C[C@H](Cc1ccc(-c2ccc(S(=O)(=O)NCCO)cc2)cc1)NC(=O)[C@@H]1CCCCN1` [Example 73, (S)-N-((S)-1-Cyano-2-(4′-(N-(2-hydroxyethyl)sulfamoyl)biphenyl-4-yl)ethyl)piperidine-2-carboxamide], for which the IC50 is 10 nM.

On to `N#C[C@H](Cc1ccc(-c2cccc(CN)c2)cc1)NC(=O)[C@@H]1CCCCN1` [Example 7, (S)-N-((S)-2-(3′-(Aminomethyl)biphenyl-4-yl)-1-cyanoethyl)piperidine-2-carboxamide Ditrifluoroacetate], for which the IC50 is 100 nM.

`CCc1ccc(-c2ccc(C[C@@H](C#N)NC(=O)[C@@H]3CCCCN3)cc2)cc1` [Example 70, (S)-N-((S)-1-Cyano-2-(4′-ethylbiphenyl-4-yl)ethyl)piperidine-2-carboxamide Trifluoroacetate]: the IC50 is 20 nM.

`N#C[C@H](Cc1ccc(S(=O)(=O)c2ccccc2)cc1)NC(=O)[C@@H]1CCCCN1` [Example 102, (S)-N-((S)-1-Cyano-2-(4-(phenylsulfonyl)phenyl)ethyl)piperidine-2-carboxamide]: the IC50 is 3160 nM.

Turning to `COc1ncc(-c2ccc(C[C@@H](C#N)NC(=O)[C@@H]3CCCCN3)cc2)cn1` [Example 46, (2S)-N-[(1S)-1-Cyano-2-[4-(2-methoxypyrimidin-5-yl)phenyl]ethyl]piperidine-2-carboxamide trifluoroacetate], the IC50 was 1260 nM.

In the case of `CCCOc1ccc(-c2ccc(C[C@@H](C#N)NC(=O)[C@@H]3CCCCN3)cc2)cc1F` [Example 39, (2S)-N-[(1S)-1-Cyano-2-[4-(3-fluoro-4-propoxy-phenyl)phenyl]ethyl]pipe-ridine-2-carboxamide trifluoroacetate], the IC50 is 316 nM.

Consider `CN(C)S(=O)(=O)c1cccc(-c2ccc(C[C@@H](C#N)NC(=O)[C@@H]3CCCCN3)cc2)c1` [Example 87, (S)-N-((S)-1-Cyano-2-(3′-(N,N-dimethylsulfamoyl)biphenyl-4-yl)ethyl)piperidine-2-carboxamide Trifluoroacetate], for which the IC50 is 50.1 nM.

`Cc1ncccc1-c1ccc(C[C@@H](C#N)NC(=O)[C@@H]2CCCCN2)cc1` [Example 52, (2S)-N-[(1S)-1-Cyano-2-[4-(2-methylpyridin-3-yl)phenyl]ethyl]piperidine-2-carboxamide trifluoroacetate]: the IC50 was 3160 nM.

Regarding `Cc1nccn1-c1cc(-c2ccc(C[C@@H](C#N)NC(=O)[C@@H]3CCCCN3)cc2)ccc1C#N` [Example 62, (2S)-N-((1S)-1-Cyano-2-(4′-cyano-3′-(2-methyl-1H-imidazol-1-yl)biphenyl-4-yl)ethyl)piperidine-2-carboxamide], the IC50 was 15.8 nM.

On to `N#C[C@H](Cc1ccc(-c2ccccc2)cc1)NC(=O)[C@@H]1C[C@@H](O)CN1` [Example 17, (2S,4R)-N-((S)-2-(Biphenyl-4-yl)-1-cyanoethyl)-4-hydroxypyrrolidine-2-carboxamide], for which the IC50 is 200 nM.

Consider `N#C[C@H](Cc1ccc(-c2ccc(F)c(F)c2)cc1)NC(=O)[C@@H]1CCCCN1` [Example 29, (2S)-N-[(1S)-1-Cyano-2-[4-(3,4-difluorophenyl)phenyl]ethyl]piperidine-2-carboxamide trifluoroacetate], for which the IC50 was 100 nM.

Consider `Cn1c(=O)sc2ccc(-c3ccc(C[C@@H](C#N)NC(=O)[C@@H]4CCCCN4)cc3)cc21` [Example 66, (S)-N-((S)-1-Cyano-2-(4-(3-methyl-2-oxo-2,3-dihydrobenzo[d]thiazol-5-yl)phenyl)ethyl) piperidine-2-carboxamide], for which the IC50 is 2 nM.

As to `COc1ccc(-c2ccc(C[C@@H](C#N)NC(=O)[C@@H]3CCCCN3)cc2)cc1` [Example 25, (2S)-N-[(1S)-1-Cyano-2-[4-(4-methoxyphenyl)phenyl]ethyl]piperidine-2-carboxamide trifluoroacetate], the IC50 is 63.1 nM.

As to `N#C[C@H](Cc1ccc(-c2ccc3c(c2)SCC(=O)N3)cc1)NC(=O)[C@@H]1CCCCN1` [Example 68, (S)-N-((S)-1-Cyano-2-(4-(3-oxo-3,4-dihydro-2H-benzo[b][1,4]thia-zin-7-yl)phenyl)ethyl) piperidine-2-carboxamide], the IC50 was 15.8 nM.

Turning to `N#C[C@H](Cc1ccc(-c2cc3ccccc3[nH]2)cc1)NC(=O)[C@@H]1CCCCN1` [Example 14, (S)-N-((S)-2-(4-(1H-Indol-2-yl)phenyl)-1-cyanoethyl)piperidine-2-carboxamide Trifluoroacetate], the IC50 was 7.94 nM.

Regarding `N#C[C@H](Cc1ccc(-c2ccc(C(F)(F)F)cc2)cc1)NC(=O)[C@@H]1CCCCN1` [Example 82, (S)-N-((S)-1-Cyano-2-(4′-(trifluoromethyl)biphenyl-4-yl)ethyl)piperidine-2-carboxamide Trifluoroacetate], the IC50 is 5.01 nM.
